Source: USRE48461E1, “Modulation of androgen receptor expression” (Ionis Pharmaceuticals, Inc., priority 2012, dated 2021)
Oligonucleotides are written 5' to 3', each unit as a sugar letter and its base; * is a phosphorothioate linkage, no mark a phosphodiester; rarer units and linkages stand in square brackets, end groups in braces. Plain capitals give the bases only. k = constrained ethyl (cEt); [5mC] = 5-methylcytosine; d = 2'-deoxy (DNA)

Experiments:
full-length AR = assay: Western blot of full-length AR in MDV3100-resistant C4-2B cells; format: cell-based, human
Protocol: (§1) ISIS 549372, ISIS 549434, and ISIS 554221 at 1 μM concentration of antisense oligonucleotide were each added to the culture media at 1 μM concentration for free uptake by the cells. After a treatment period of 2 days, cells were harvested in RIPA buffer containing protease inhibitors. The presence of bands for full-length AR, as well as the variant form, AR-V7, was detected by western blot using AR antibody (N-20, Santa Cruz).
(§2) Western analysis of full-length AR, as well as the AR-V7 variant, was also conducted in a manner similar to the assay described above.

AR-V7 = assay: Western blot of AR-V7 in MDV3100-resistant C4-2B cells; format: cell-based, human
Protocol: as §1, §2

total AR mRNA = assay: Total (full-length) AR mRNA in C4-2B MR cells, free uptake; format: cell-based, human; settings: C4-2B MR cells, 0.04-5.00 μM free uptake, 24 hrs
Summary of the method: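 Cells grown in RPMI1640 with 10% FBS received antisense oligonucleotides at 0.04, 0.20, 1.00 and 5.00 μM in the medium by free uptake, no transfection agent. After 24 hrs, total AR mRNA quantified by real-time qPCR with primer probe set RTS3559.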

KLK3 mRNA = KLK3 mRNA (AR target gene) in C4-2B MR cells; format: cell-based, human; settings: C4-2B MR cells, 0.04-5.00 μM
KLK2 mRNA = KLK2 mRNA (AR target gene) in C4-2B MR cells; format: cell-based, human; settings: C4-2B MR cells, 0.04-5.00 μM
C4-2B MR cells = assay: Proliferation of MDV3100-resistant C4-2B cells (CellTiter 96); format: cell-based, human; settings: 0.04-5.00 μM, 6 days
Summary of the method: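 Antisense oligonucleotides were added to the culture medium at 0.04, 0.20, 1.00 and 5.00 μM, with a non-targeting oligonucleotide as negative control. After 6 days of treatment, proliferation was read with CellTiter 96 AQueous One. Values are percent inhibition relative to untreated cells.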

C4-2B cells [1] = assay: C4-2B cell proliferation, ASO in combination with MDV3100 (Example 19); format: cell-based, human
Protocol: C4-2B cells were plated at 1,500 cells per well. […] ISIS 347526 was included as a negative control. […] After a treatment period of 6 days, the proliferative capacity of the cancer cells was measured with CellTiter 96® AQueous One Solution Cell Proliferation kit (Promega), following the manufacturer's instructions. Results are presented in Table 46 as percent inhibition of proliferation, relative to non-treated cells. Treatment of the cells with ISIS 549372 or ISIS 549458 reduced proliferation of the cells more extensively than treatment with ISIS 554221.

AR full-length mRNA = AR full-length mRNA in CWR22-RV1 cells (RNAiMax, RTS3559); format: cell-based, human; settings: 6 days
Protocol: (§3) CWR22-RV1 cells were plated and transfected using RNAiMax reagent (Life Technologies) with ISIS oligonucleotides at 1.7 nM, 5.0 nM, 16.7 nM, or 50 nM concentrations. ISIS 347526 was included as a negative control. After a treatment period of 6 days, the target reduction and proliferative capacity of the cancer cells was measured.
(§4) Antisense inhibition of AR full-length mRNA was measured with the RTS3559 primer probe set. The results are presented in Table 63 as percent inhibition relative to non-treated cells. The reduction in V7 splice variant of the AR mRNA was also measured by RT-PCR using SYBR Green staining (Hu, R. et al., Cancer Res. 2009. 69: 16-22). The results are presented in Table 64, as percent reduction, relative to non-treated cells. Cell proliferation was measured with CellTiter 96® AQueous One Solution Cell Proliferation kit (Promega), following the manufacturer's instructions. Results are presented in Table 65 as percent inhibition of proliferation, relative to non-treated cells.

[2] = tested on: V7 splice variant of the AR mRNA; assay: AR V7 splice variant mRNA in CWR22-RV1 cells (RT-PCR SYBR Green); format: cell-based, human; settings: RNAiMax, 6 days
Protocol: as §3, §4

CWR22-RV1 cells = assay: CWR22-RV1 cell proliferation (CellTiter 96); format: cell-based, human; settings: RNAiMax, 6 days
Protocol: as §3, §4

AR mRNA [3] = assay: AR mRNA in C4-2B cells by free uptake (hAR_LTS00943); format: cell-based, human; settings: 24 hrs; for Percent inhibition of AR full-length mRNA: free uptake
Protocol: (§5) Cells were plated at a concentration of 1,000 cells/well in 96-well plates to measure cell proliferation, and at 4,000 cells/well to measure target reduction. ISIS 549458, ISIS 549372, ISIS 549434, and ISIS 554221 were added individually at 0.04 μM, 0.20 μM, 1.00 μM, or 5.00 μM. After an incubation period of 24 hrs, mRNA levels were measured using hAR_LTS00943.

C4-2B cells [4] = assay: C4-2B cell proliferation by free uptake (MTT); format: cell-based, human; settings: day 6
Protocol: as §5
On day 6, cells plated for measuring proliferation were incubated with MTT reagent until the development of color. Color intensity was measured using a spectrophotometer at 490 nm.

AR mRNA [5] = assay: AR mRNA expression in MDA-MB-453 breast cancer orthotopic model; format: in vivo, human; settings: Study 1; TB-interface, normalized to actin; 50 mg/kg s.c. five times a week for 4 weeks
MDA-MB-453 tumor = assay: Tumor volume in MDA-MB-453 breast cancer orthotopic model; format: in vivo, NSG mice; settings: 50 mg/kg s.c. five times a week for 4 weeks; for Tumor volume: Study 1, MDA-MB-453 orthotopic, NSG mice
[6] = cynomolgus monkey, in vivo, sc, 40 mg/kg
Protocol: Prior to the study, the monkeys were kept in quarantine for a 30-day period, during which the animals were observed daily for general health. The monkeys were 2-4 years old and weighed between 2 and 4 kg. Thirteen groups of four randomly assigned male cynomolgus monkeys each were injected subcutaneously with ISIS oligonucleotide or PBS. PBS solution or ISIS oligonucleotides, at a dose of 40 mg/kg, were administered with a loading regimen consisting of four doses on the first week of the study (days 1, 3, 5, and 7), followed by a maintenance regimen consisting of once weekly administration starting on Day 14 (weeks 2 to 6). Subcutaneous injections were performed in clock-wise rotations at 4 sites on the back; one site per dose. The injection sites were delineated by tattoo, while sedated using ketamine, and were separated by a minimum of 3 cm.
To evaluate the effect of ISIS oligonucleotides on the overall health of the animals, body and organ weights were measured.

[7] = cynomolgus monkey, in vivo, sc, 40 mg/kg; remark: listed apart in the source
[8] = cynomolgus monkey, in vivo, sc, 40 mg/kg; remark: listed apart in the source
[9] = cynomolgus monkey, in vivo, sc, 40 mg/kg; remark: listed apart in the source
[10] = cynomolgus monkey, in vivo, sc, 40 mg/kg; remark: listed apart in the source
Protocol: The monkeys were 2-4 years old and weighed between 2 and 4 kg. Thirteen groups of four randomly assigned male cynomolgus monkeys each were injected subcutaneously with ISIS oligonucleotide or PBS. PBS solution or ISIS oligonucleotides, at a dose of 40 mg/kg, were administered with a loading regimen consisting of four doses on the first week of the study (days 1, 3, 5, and 7), followed by a maintenance regimen consisting of once weekly administration starting on Day 14 (weeks 2 to 6). Subcutaneous injections were performed in clock-wise rotations at 4 sites on the back; one site per dose. The injection sites were delineated by tattoo, while sedated using ketamine, and were separated by a minimum of 3 cm.
To evaluate any inflammatory effect of ISIS oligonucleotides in cynomolgus monkeys, the monkeys were fasted overnight. Approximately, 1.5 mL of blood samples were collected from all the study groups on day 44. Blood was collected in tubes without anticoagulant for serum separation. The tubes were kept at room temperature for a minimum of 90 min and then centrifuged at 3,000 rpm for 10 min. C-reactive protein (CRP), which is synthesized in the liver and which serves as a marker of inflammation, was measured on day 43 using a Toshiba 120FR NEO chemistry analyzer (Toshiba Co., Japan). Complement C3 was also measured similarly, and the data is presented as a percentage of baseline values.

[11] = C4-2B MR cells, 1 μM ASO free uptake, 2 days (Example 15)

AAGTTGTAGTAGTCGC (kA*kA*kG*dT*dT*dG*dT*dA*dG*dT*dA*dG*dT*k[5mC]*kG*k[5mC]) [ISIS 549372, targets exon 1]
levels of full-length AR (Western analysis) (full-length AR; C4-2B MR cells (Example 16)): reduced levels of full-length AR and AR-V7
full-length AR (western blot) (full-length AR; [11]): reduced full-length AR and AR-V7 more extensively than treatment with either ISIS 554221 or ISIS 549434
levels of AR-V7 (Western analysis) (AR-V7; C4-2B MR cells (Example 16)): reduced levels of full-length AR and AR-V7
AR-V7 (western blot) (AR-V7; [11]): reduced full-length AR and AR-V7 more extensively than treatment with either ISIS 554221 or ISIS 549434
total AR transcript levels (total AR mRNA): reduced total AR transcript levels in a dose dependent manner more extensively than treatment with ISIS 554221
AR target gene KLK3 mRNA levels (KLK3 mRNA): reduced target gene levels in a dose dependent manner more extensively than treatment with ISIS 554221
AR target gene KLK2 mRNA levels (KLK2 mRNA): reduced target gene levels in a dose dependent manner more extensively than treatment with ISIS 554221
proliferation of C4-2B MR cells (C4-2B MR cells): reduced proliferation of the cells in a dose dependent manner more extensively than treatment with ISIS 554221
Percent inhibition of C4-2B cell proliferation with 0.1 μM ASO (C4-2B cells [1]; 0.1 μM ASO + MDV3100 1 μM, 6 days): 66%
Percent inhibition of C4-2B cell proliferation with 0.1 μM ASO (C4-2B cells [1]; 0.1 μM ASO + MDV3100 […], 6 days): 44%
Percent inhibition of C4-2B cell proliferation with 0.1 μM ASO (C4-2B cells [1]; 0.1 μM ASO, MDV3100 0 μM, 6 days): 23%
Percent inhibition of C4-2B cell proliferation with 0.2 μM ASO (C4-2B cells [1]; 0.2 μM ASO + MDV3100 1 μM, 6 days): 77%
Percent inhibition of C4-2B cell proliferation with 0.2 μM ASO (C4-2B cells [1]; 0.2 μM ASO + MDV3100 […], 6 days): 69%
Percent inhibition of C4-2B cell proliferation with 0.2 μM ASO (C4-2B cells [1]; 0.2 μM ASO, MDV3100 0 μM, 6 days): 59%
synergy with MDV3100 (C4-2B cells [1]; C4-2B cells): synergistic with MDV3100
cell proliferation inhibited, combination (C4-2B cells [1]; C4-2B cells, 0.1 μM ASO in combination with […] MDV3100): 66%
inhibited cell proliferation, ASO alone (C4-2B cells [1]; C4-2B cells, ASO alone at 0.1 μM): 23%
reduced cell proliferation, ASO alone (C4-2B cells [1]; C4-2B cells, ASO alone, 6 days, Table 46 (0.1 μM ASO)): 59%
prostate cancer cell proliferation, ASO in combination with MDV3100 (C4-2B cells [1]; C4-2B cells, versus equal molar ISIS 554221 + MDV3100): inhibited prostate cancer cell proliferation to a greater extent than an equal molar concentration of ISIS 554221 in combination of MDV3100
Percent inhibition of AR full-length mRNA (AR full-length mRNA; dose 5.0 nM): 53%
Percent inhibition of AR full-length mRNA (AR full-length mRNA; dose 16.7 nM): 64%
Percent inhibition of AR full-length mRNA (AR full-length mRNA; dose 50.0 nM): 78%
Percent inhibition of AR splice variant, V7 ([2]; dose 5.0 nM): 35%
Percent inhibition of AR splice variant, V7 ([2]; dose 16.7 nM): 56%
Percent inhibition of AR splice variant, V7 ([2]; dose 50.0 nM): 82%
Percent inhibition of cell proliferation (CWR22-RV1 cells; dose 5.0 nM): 0%
Percent inhibition of cell proliferation (CWR22-RV1 cells; dose 16.7 nM): 25%
Percent inhibition of cell proliferation (CWR22-RV1 cells; dose 50.0 nM): 53%
AR mRNA expression (AR mRNA [3]; free uptake 0.04-5.00 μM): inhibited AR mRNA expression more potently than ISIS 554221
Percent inhibition of AR full-length mRNA (AR mRNA [3]; dose 0.04 μM): 10%
Percent inhibition of AR full-length mRNA (AR mRNA [3]; dose 0.20 μM): 36%
Percent inhibition of AR full-length mRNA (AR mRNA [3]; dose 1.00 μM): 73%
Percent inhibition of AR full-length mRNA (AR mRNA [3]; dose 5.00 μM): 80%
Percent inhibition of cell proliferation (C4-2B cells [4]; dose 0.04 μM): 8%
Percent inhibition of cell proliferation (C4-2B cells [4]; dose 0.20 μM): 34%
Percent inhibition of cell proliferation (C4-2B cells [4]; dose 1.00 μM): 44%
Percent inhibition of cell proliferation (C4-2B cells [4]; dose 5.00 μM): 45%

TGATTTAATGGTTGCA [ISIS 569216] (cEt/MOE gapmer chemistry, further chemistry not given here)
AR mRNA expression inhibited compared to the control group (AR mRNA [5]): 48%
Tumor volume (MDA-MB-453 tumor; Day 16): 134
Tumor volume (MDA-MB-453 tumor; Day 23): 142
Tumor volume (MDA-MB-453 tumor; Day 30): 173
Tumor volume (MDA-MB-453 tumor; Day 37): 125
Tumor volume (MDA-MB-453 tumor; Day 44): 92
Tumor volume (MDA-MB-453 tumor; Day 51): 73
Tumor volumes (MDA-MB-453 tumor; Study 1, MDA-MB-453 model): tumor volumes were significantly decreased
Body Wt [6]: 2.6 kg
Heart weight [6]: 9.3 g
Kidney weight [6]: 15 g
Liver weight [6]: 71 g
Mesenteric lymph nodes weight [6]: 2.7 g
Spleen weight [6]: 4.9 g
ALT [7]: 75 IU/L
AST [7]: 93 IU/L
Albumin [7]: 3.7 g/dL
HCT [8]: 43%
Hemoglobin [8]: 12.8 g/dL
Platelets [8]: 504000 µL
RBC [8]: 5.6e+06 µL
WBC [8]: 12200 µL
Plasma BUN [9]: 28.4 mg/dL
Plasma Creatinine [9]: 0.81 mg/dL
C3 (% of baseline) [10]: 94 % of baseline
CRP [10]: 3.6 mg/dL
